Test results taken from the NIST ThermoML archive (doi:10.1021/acs.jced.7b00106).
Numbers after ± are expanded uncertainties.

Conditions: Liquid, Hot wire method

FC(F)(F)/C=C/Cl [(E)-1-chloro-3,3,3-trifluoroprop-1-ene]
Conditions | thermal conductivity [W/m/K]
263.11 K, 10284 kPa | 0.09779 ± 0.0036
263.11 K, 15941 kPa | 0.1 ± 0.0031
263.12 K, 275 kPa | 0.09368 ± 0.0028
263.12 K, 5037 kPa | 0.09578 ± 0.0032
263.3 K, 65213 kPa | 0.1155 ± 0.0043
263.31 K, 42853 kPa | 0.1092 ± 0.0037
263.34 K, 36413 kPa | 0.1071 ± 0.0032
263.35 K, 59142 kPa | 0.1143 ± 0.0054
263.39 K, 51112 kPa | 0.1115 ± 0.0034
263.4 K, 29224 kPa | 0.1049 ± 0.0032
263.45 K, 22281 kPa | 0.1026 ± 0.0034
263.48 K, 65190 kPa | 0.115 ± 0.0043
263.49 K, 15926 kPa | 0.1002 ± 0.0047
263.5 K, 10264 kPa | 0.0981 ± 0.0046
263.5 K, 42848 kPa | 0.1085 ± 0.0034
263.52 K, 5059 kPa | 0.09603 ± 0.0038
263.53 K, 267 kPa | 0.09392 ± 0.0032
263.53 K, 36413 kPa | 0.1068 ± 0.0034
263.54 K, 59138 kPa | 0.1137 ± 0.0039
263.58 K, 51103 kPa | 0.1112 ± 0.0038
263.59 K, 29225 kPa | 0.1044 ± 0.0032
263.64 K, 22275 kPa | 0.1022 ± 0.0039
263.7 K, 15944 kPa | 0.09988 ± 0.0034
263.71 K, 10281 kPa | 0.09774 ± 0.003
263.73 K, 5041 kPa | 0.09557 ± 0.0033
263.75 K, 278 kPa | 0.09344 ± 0.0035
263.84 K, 65191 kPa | 0.1154 ± 0.0036
263.88 K, 42851 kPa | 0.1087 ± 0.0035
263.91 K, 36412 kPa | 0.1071 ± 0.0036
263.95 K, 51092 kPa | 0.1113 ± 0.0042
263.98 K, 29226 kPa | 0.1045 ± 0.004
264.05 K, 65174 kPa | 0.1149 ± 0.0038
264.1 K, 42852 kPa | 0.1085 ± 0.0033
264.11 K, 59122 kPa | 0.1132 ± 0.0058
264.13 K, 36411 kPa | 0.1066 ± 0.0043
264.17 K, 51091 kPa | 0.1108 ± 0.0044
264.21 K, 29227 kPa | 0.1042 ± 0.0038
281.25 K, 20968 kPa | 0.09541 ± 0.022
281.29 K, 10961 kPa | 0.09337 ± 0.0087
281.3 K, 3101 kPa | 0.08933 ± 0.003
281.3 K, 6243 kPa | 0.09051 ± 0.0061
281.31 K, 203 kPa | 0.08831 ± 0.0064
281.31 K, 16036 kPa | 0.09555 ± 0.0064
281.32 K, 20959 kPa | 0.09554 ± 0.0041
281.36 K, 10962 kPa | 0.09248 ± 0.0068
281.38 K, 3093 kPa | 0.0889 ± 0.0029
281.38 K, 6225 kPa | 0.09019 ± 0.0045
281.39 K, 193 kPa | 0.08772 ± 0.0054
281.61 K, 39518 kPa | 0.1031 ± 0.0039
281.62 K, 46215 kPa | 0.1057 ± 0.0032
281.62 K, 55364 kPa | 0.1084 ± 0.0033
281.64 K, 16024 kPa | 0.09394 ± 0.0069
281.64 K, 33249 kPa | 0.1009 ± 0.0057
281.64 K, 64739 kPa | 0.1107 ± 0.0045
281.65 K, 20972 kPa | 0.09689 ± 0.0067
281.65 K, 27078 kPa | 0.0987 ± 0.0031
281.7 K, 10959 kPa | 0.09251 ± 0.0069
281.71 K, 39517 kPa | 0.103 ± 0.0041
281.71 K, 55366 kPa | 0.1082 ± 0.004
281.72 K, 6236 kPa | 0.09039 ± 0.0029
281.72 K, 46217 kPa | 0.1053 ± 0.0033
281.73 K, 3096 kPa | 0.08936 ± 0.0039
281.73 K, 33252 kPa | 0.1011 ± 0.0032
281.73 K, 64721 kPa | 0.1106 ± 0.0042
281.74 K, 201 kPa | 0.08787 ± 0.0061
281.75 K, 16022 kPa | 0.09421 ± 0.0077
281.75 K, 20962 kPa | 0.09616 ± 0.0055
281.75 K, 27071 kPa | 0.09865 ± 0.0038
281.8 K, 10956 kPa | 0.0923 ± 0.0029
281.83 K, 6219 kPa | 0.09017 ± 0.0027
281.85 K, 185 kPa | 0.08733 ± 0.0031
281.85 K, 3101 kPa | 0.08903 ± 0.0037
282.03 K, 55362 kPa | 0.1085 ± 0.0044
282.04 K, 64705 kPa | 0.1107 ± 0.0034
282.05 K, 39515 kPa | 0.1034 ± 0.0032
282.05 K, 46209 kPa | 0.1055 ± 0.0038
282.08 K, 33242 kPa | 0.1012 ± 0.0031
282.1 K, 27075 kPa | 0.09876 ± 0.003
282.11 K, 16012 kPa | 0.09449 ± 0.0041
282.11 K, 20964 kPa | 0.09638 ± 0.0036
282.15 K, 46205 kPa | 0.1054 ± 0.0038
282.15 K, 55358 kPa | 0.108 ± 0.0044
282.15 K, 64700 kPa | 0.1104 ± 0.0034
282.16 K, 39512 kPa | 0.103 ± 0.0031
282.18 K, 10959 kPa | 0.09237 ± 0.0029
282.2 K, 33255 kPa | 0.101 ± 0.0031
282.21 K, 6234 kPa | 0.09065 ± 0.0029
282.22 K, 3104 kPa | 0.08891 ± 0.003
282.23 K, 27070 kPa | 0.09861 ± 0.0031
282.24 K, 198 kPa | 0.08741 ± 0.0029
282.24 K, 16024 kPa | 0.0943 ± 0.0032
282.24 K, 20959 kPa | 0.09631 ± 0.0037
282.31 K, 10962 kPa | 0.09207 ± 0.0028
282.35 K, 6225 kPa | 0.09024 ± 0.0028
282.37 K, 3126 kPa | 0.08877 ± 0.0027
282.38 K, 188 kPa | 0.08744 ± 0.0032
282.5 K, 55349 kPa | 0.108 ± 0.0051
282.5 K, 64686 kPa | 0.1105 ± 0.0035
282.52 K, 39509 kPa | 0.103 ± 0.0034
282.52 K, 46199 kPa | 0.1053 ± 0.0032
282.57 K, 33243 kPa | 0.101 ± 0.0038
282.6 K, 27082 kPa | 0.09879 ± 0.003
282.62 K, 16026 kPa | 0.09446 ± 0.0029
282.62 K, 20964 kPa | 0.09651 ± 0.003
282.63 K, 64675 kPa | 0.1105 ± 0.0035
282.64 K, 55348 kPa | 0.1078 ± 0.0035
282.67 K, 39508 kPa | 0.103 ± 0.0032
282.67 K, 46193 kPa | 0.105 ± 0.0034
282.71 K, 10958 kPa | 0.09238 ± 0.0028
282.73 K, 33247 kPa | 0.1009 ± 0.0032
282.75 K, 6236 kPa | 0.09029 ± 0.0034
282.75 K, 27089 kPa | 0.09858 ± 0.003
282.78 K, 3125 kPa | 0.08898 ± 0.0028
282.78 K, 20962 kPa | 0.09627 ± 0.0031
282.79 K, 16015 kPa | 0.09427 ± 0.003
282.8 K, 194 kPa | 0.08765 ± 0.0027
282.88 K, 10957 kPa | 0.09201 ± 0.0028
282.92 K, 6218 kPa | 0.09006 ± 0.0027
282.95 K, 3110 kPa | 0.08875 ± 0.0028
282.97 K, 194 kPa | 0.08733 ± 0.0028
282.99 K, 64664 kPa | 0.1105 ± 0.0034
283 K, 55335 kPa | 0.1078 ± 0.0033
283.04 K, 46194 kPa | 0.1053 ± 0.0032
283.06 K, 39510 kPa | 0.1032 ± 0.0031
283.12 K, 33245 kPa | 0.1008 ± 0.0031
283.15 K, 64649 kPa | 0.1103 ± 0.0033
283.16 K, 27095 kPa | 0.09871 ± 0.003
283.18 K, 20963 kPa | 0.09653 ± 0.0031
283.18 K, 55341 kPa | 0.1078 ± 0.0034
283.21 K, 16028 kPa | 0.09435 ± 0.0034
283.21 K, 46185 kPa | 0.105 ± 0.0032
283.24 K, 39508 kPa | 0.103 ± 0.0031
283.29 K, 10953 kPa | 0.09216 ± 0.0028
283.29 K, 33245 kPa | 0.1006 ± 0.0032
283.34 K, 27084 kPa | 0.09839 ± 0.0034
283.35 K, 6234 kPa | 0.09024 ± 0.0033
283.38 K, 3103 kPa | 0.08892 ± 0.0028
283.38 K, 20960 kPa | 0.09617 ± 0.0031
283.39 K, 16020 kPa | 0.09411 ± 0.0032
283.42 K, 178 kPa | 0.08755 ± 0.0027
283.5 K, 10953 kPa | 0.09198 ± 0.0028
283.54 K, 64641 kPa | 0.1105 ± 0.0035
283.55 K, 6234 kPa | 0.08992 ± 0.003
283.57 K, 55328 kPa | 0.108 ± 0.0033
283.59 K, 3103 kPa | 0.08855 ± 0.0033
